# PMC12750995, “Conformational Dynamics in the Cell Membrane Interactions of Bispecific Targeted Degrader Therapeutics” (Journal of Medicinal Chemistry, 2025)
# Experiment: in vitro
# Conditions: human, HEK293 cell homogenate, pH 7.4; n = 3
# Experimental: Binding to the cell homogenate was determined at 0.1 μM for all compounds. A Rapid Equilibrium Dialysis device (Thermo Fisher, Waltham, Massachusetts) was used to dialyze the samples by adding 200 μL of the compound-spiked cell homogenate to one chamber and 350 μL of HBSS/HEPES to the other chamber. The cassette was incubated on an Eppendorf ThermoMixer C (Hamburg, Germany) at 900 rpm for 4 h at 37 °C.
row,"fraction unbound at 4 h, 0.1 μM",SMILES
1,0.182,"Cc1sc2c(c1C)C(c1ccc(Cl)cc1)=N[C@@H](CC(=O)N1CCN(c3cccc4c3C(=O)N(C3CCC(=O)NC3=O)C4=O)CC1)c1nnc(C)n1-2 (stereo partly drawn) [Compound 15, 4-(4-(2-((6S)-4-(4-Chlorophenyl)-2,3,9-trimethyl-6H-thieno[3,2-f][1,2,4]triazolo[4,3-a][1,4]diazepin-6-yl)acetyl)piperazin-1-yl)-2-(2,6-dioxopiperidin-3-yl)isoindoline-1,3-dione]"
2,0.007,"Cc1sc2c(c1C)C(c1ccc(Cl)cc1)=N[C@@H](CC(=O)NC[C@@H]1CCC[C@H](CNc3cccc4c3C(=O)N(C3CCC(=O)NC3=O)C4=O)C1)c1nnc(C)n1-2 (mixture of isomers) [Compound 12, 2-((6S)-4-(4-Chlorophenyl)-2,3,9-trimethyl-6H-thieno[3,2-f][1,2,4]triazolo[4,3-a][1,4]diazepin-6-yl)-N-(((1RS,3SR)-3-(((2-(2,6-dioxopiperidin-3-yl)-1,3-dioxoisoindolin-4-yl)amino)methyl)cyclohexyl)methyl)acetamide]"
3,0.432,"Cc1sc2c(c1C)C(c1ccc(Cl)cc1)=N[C@@H](CC(=O)NCCOCCOCCNC(=O)COc1cccc3c1C(=O)N(C1CCC(=O)NC1=O)C3=O)c1nnc(C)n1-2 (stereo partly drawn) [Compound 14, 2-((6S)-4-(4-Chlorophenyl)-2,3,9-trimethyl-6H-thieno[3,2-f][1,2,4]triazolo[4,3-a][1,4]diazepin-6-yl)-N-(2-(2-(2-(2-((2-(2,6-dioxopiperidin-3-yl)-1,3-dioxoisoindolin-4-yl)oxy)acetamido)ethoxy)ethoxy)ethyl)acetamide]"
4,0.357,"Cc1sc2c(c1C)C(c1ccc(Cl)cc1)=N[C@@H](CC(=O)N1CCC(Oc3cccc4c3C(=O)N(C3CCC(=O)NC3=O)C4=O)C1)c1nnc(C)n1-2 (stereo partly drawn) [Compound 17, 4-((1-(2-((6S)-4-(4-Chlorophenyl)-2,3,9-trimethyl-6H-thieno[3,2-f][1,2,4]triazolo[4,3-a][1,4]diazepin-6-yl)acetyl)pyrrolidin-3-yl)oxy)-2-(2,6-dioxopiperidin-3-yl)isoindoline-1,3-dione]"
5,0.5,"Cc1sc2c(c1C)C(c1ccc(Cl)cc1)=N[C@@H](CC(=O)NCCOCCNC(=O)COc1cccc3c1C(=O)N(C1CCC(=O)NC1=O)C3=O)c1nnc(C)n1-2 (stereo partly drawn) [Compound 16, 2-((6S)-4-(4-Chlorophenyl)-2,3,9-trimethyl-6H-thieno[3,2-f][1,2,4]triazolo[4,3-a][1,4]diazepin-6-yl)-N-(2-(2-(2-((2-(2,6-dioxopiperidin-3-yl)-1,3-dioxoisoindolin-4-yl)oxy)acetamido)ethoxy)ethyl)acetamide]"

# Same assay, conditions: human, tissue homogenate, pH 7.4; n = 3
row,SMILES,"fraction unbound at 4 h, 0.1 μM"
1,"Cc1sc2c(c1C)C(c1ccc(Cl)cc1)=N[C@@H](CC(=O)NCCCNc1cccc3c1C(=O)N(C1CCC(=O)NC1=O)C3=O)c1nnc(C)n1-2 (stereo partly drawn) [Compound 13, 2-((6S)-4-(4-Chlorophenyl)-2,3,9-trimethyl-6H-thieno[3,2-f][1,2,4]triazolo[4,3-a][1,4]diazepin-6-yl)-N-(3-((2-(2,6-dioxopiperidin-3-yl)-1,3-dioxoisoindolin-4-yl)amino)propyl)acetamide]",0.228
